ChEMBL document CHEMBL4052762, “Synthesis and biological evaluation of pyrrole-based chalcones as CYP1 enzyme inhibitors, for possible prevention of cancer and overcoming cisplatin resistance” (Bioorg Med Chem Lett, 2017)
pIC50: −log10 of the molar value.

Assays:
[1] = molecular target: T1, Aryl hydrocarbon receptor (Homo sapiens, UniProt P35869); assay: Antagonist activity at human AhR expressed in Saccharomyces cerevisiae W303-1A (ATCC 208352) transformed with an episomal plasmid containing a minimal CYC1 promoter, with a concatemer of five XRE enhancer sequences, linked to eGFP reporter gene and co-expressing ARNT assessed as inhibition of B[a]P agonist induced XRE-driven eGFP expression by measuring eGFP units at 5 uM after 18 hrs by …
T1 sequence (P35869 whole entry): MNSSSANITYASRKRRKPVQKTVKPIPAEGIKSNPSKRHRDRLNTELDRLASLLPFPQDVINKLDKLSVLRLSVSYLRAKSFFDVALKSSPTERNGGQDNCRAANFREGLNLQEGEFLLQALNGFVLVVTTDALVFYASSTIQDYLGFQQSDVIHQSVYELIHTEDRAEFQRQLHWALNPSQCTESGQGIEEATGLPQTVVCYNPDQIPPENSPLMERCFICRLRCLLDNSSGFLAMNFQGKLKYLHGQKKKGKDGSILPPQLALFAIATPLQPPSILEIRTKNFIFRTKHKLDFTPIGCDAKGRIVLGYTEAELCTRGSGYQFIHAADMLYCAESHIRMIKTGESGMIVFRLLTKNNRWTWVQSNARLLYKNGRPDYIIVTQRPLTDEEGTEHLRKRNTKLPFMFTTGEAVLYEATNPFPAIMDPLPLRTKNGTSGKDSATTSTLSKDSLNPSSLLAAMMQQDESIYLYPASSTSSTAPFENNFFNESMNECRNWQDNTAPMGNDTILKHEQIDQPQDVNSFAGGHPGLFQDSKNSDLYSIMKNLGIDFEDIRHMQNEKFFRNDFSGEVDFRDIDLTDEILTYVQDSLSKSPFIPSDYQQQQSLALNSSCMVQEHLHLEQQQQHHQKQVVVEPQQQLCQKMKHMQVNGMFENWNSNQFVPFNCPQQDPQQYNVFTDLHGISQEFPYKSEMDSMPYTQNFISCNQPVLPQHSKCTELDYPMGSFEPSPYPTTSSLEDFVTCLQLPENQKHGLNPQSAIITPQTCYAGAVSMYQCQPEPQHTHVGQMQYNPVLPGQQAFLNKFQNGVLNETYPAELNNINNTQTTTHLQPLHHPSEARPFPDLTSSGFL

[2] = molecular target: T1, Aryl hydrocarbon receptor; assay: Antagonist activity at human AhR expressed in Saccharomyces cerevisiae W303-1A (ATCC 208352) transformed with an episomal plasmid containing a minimal CYC1 promoter, with a concatemer of five XRE enhancer sequences, linked to eGFP reporter gene and co-expressing ARNT assessed as inhibition of B[a]P agonist induced XRE-driven eGFP expression by measuring eGFP units at 20 uM after 18 hrs by …
[3] = molecular target: T2, Cytochrome P450 1A1 (Homo sapiens, UniProt P04798); assay: Inhibition of human CYP1A1 bound to yeast microsomal membrane using 7-ethoxyresorufin as substrate after 10 mins by fluorescence assay
T2 sequence (P04798 whole entry): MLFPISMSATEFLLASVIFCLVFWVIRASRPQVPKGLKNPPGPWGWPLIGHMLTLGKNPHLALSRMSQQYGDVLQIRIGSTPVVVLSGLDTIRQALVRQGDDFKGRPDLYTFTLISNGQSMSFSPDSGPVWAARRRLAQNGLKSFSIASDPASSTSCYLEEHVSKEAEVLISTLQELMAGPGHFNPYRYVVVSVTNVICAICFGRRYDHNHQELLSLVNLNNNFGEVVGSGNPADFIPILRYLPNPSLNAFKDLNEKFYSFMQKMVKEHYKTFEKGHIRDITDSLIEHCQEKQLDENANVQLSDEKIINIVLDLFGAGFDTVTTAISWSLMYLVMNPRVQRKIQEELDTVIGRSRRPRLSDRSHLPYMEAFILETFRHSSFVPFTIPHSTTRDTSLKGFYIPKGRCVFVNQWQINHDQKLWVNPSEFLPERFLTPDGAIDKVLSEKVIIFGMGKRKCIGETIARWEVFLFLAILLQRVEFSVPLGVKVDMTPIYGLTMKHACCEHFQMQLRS

[4] = molecular target: T3, Cytochrome P450 1A2 (Homo sapiens, UniProt P05177); assay: Inhibition of human CYP1A2 expressed in HEK293 cells using fluorogenic 3-cyano-7-ethoxycoumarin as substrate preincubated for 30 mins followed by substrate addition measured for 60 mins by fluorescence assay; format: cell-based
T3 sequence (P05177 whole entry): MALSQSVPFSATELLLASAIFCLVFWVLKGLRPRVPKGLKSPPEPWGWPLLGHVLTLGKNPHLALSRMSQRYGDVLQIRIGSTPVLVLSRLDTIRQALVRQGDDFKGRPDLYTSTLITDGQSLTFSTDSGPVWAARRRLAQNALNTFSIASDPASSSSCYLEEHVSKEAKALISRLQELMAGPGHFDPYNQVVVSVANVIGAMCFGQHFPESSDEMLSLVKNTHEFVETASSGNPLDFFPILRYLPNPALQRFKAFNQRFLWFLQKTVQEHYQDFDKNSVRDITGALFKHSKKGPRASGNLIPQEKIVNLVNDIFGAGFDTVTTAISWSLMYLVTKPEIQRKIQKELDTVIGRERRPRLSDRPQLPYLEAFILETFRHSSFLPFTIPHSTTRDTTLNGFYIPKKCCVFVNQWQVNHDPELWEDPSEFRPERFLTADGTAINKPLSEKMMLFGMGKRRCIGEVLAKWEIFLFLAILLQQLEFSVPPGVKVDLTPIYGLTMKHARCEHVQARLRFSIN

[5] = molecular target: T1, Aryl hydrocarbon receptor; assay: Antagonist activity at human AhR expressed in Saccharomyces cerevisiae W303-1A (ATCC 208352) transformed with an episomal plasmid containing a minimal CYC1 promoter, with a concatemer of five XRE enhancer sequences, linked to eGFP reporter gene and co-expressing ARNT assessed as inhibition of B[a]P agonist induced XRE-driven eGFP expression by measuring eGFP units at 1 uM after 18 hrs by …
[6] = molecular target: T3, Cytochrome P450 1A2; assay: Inhibition of human CYP1A2 bound to yeast microsomal membrane using 3-cyano-7-ethoxycoumarin as substrate after 10 mins by fluorescence assay
[7] = molecular target: T4, Cytochrome P450 2C19 (Homo sapiens, UniProt P33261); assay: Inhibition of human CYP2C19 bound to yeast microsomal membrane using 3-cyano-7-ethoxycoumarin as substrate after 10 mins by fluorescence assay; format: ADME
[8] = molecular target: T5, Cytochrome P450 1B1 (Homo sapiens, UniProt Q16678); assay: Inhibition of human CYP1B1 bound to yeast microsomal membrane using 7-ethoxyresorufin as substrate after 10 mins by fluorescence assay
T5 sequence (Q16678 whole entry): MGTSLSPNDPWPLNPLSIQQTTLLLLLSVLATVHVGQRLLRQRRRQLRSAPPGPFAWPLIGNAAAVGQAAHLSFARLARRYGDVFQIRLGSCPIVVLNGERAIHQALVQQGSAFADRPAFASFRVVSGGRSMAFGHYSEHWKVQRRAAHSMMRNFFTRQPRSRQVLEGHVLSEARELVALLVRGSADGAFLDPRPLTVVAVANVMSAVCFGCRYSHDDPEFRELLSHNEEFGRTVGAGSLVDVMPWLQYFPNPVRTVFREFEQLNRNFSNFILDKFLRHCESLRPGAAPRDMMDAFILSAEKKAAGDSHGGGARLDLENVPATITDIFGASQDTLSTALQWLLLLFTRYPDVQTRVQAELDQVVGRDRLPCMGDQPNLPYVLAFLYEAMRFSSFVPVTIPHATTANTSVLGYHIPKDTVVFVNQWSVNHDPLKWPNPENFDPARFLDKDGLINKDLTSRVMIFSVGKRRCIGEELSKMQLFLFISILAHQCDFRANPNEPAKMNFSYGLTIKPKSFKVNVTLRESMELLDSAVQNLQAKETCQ

[9] = molecular target: Cytochrome P450 2C9 (Homo sapiens, UniProt P11712); assay: Inhibition of human CYP2C9 expressed in HEK293 cells using fluorogenic 3-cyano-7-ethoxycoumarin as preincubated for 30 mins followed by substrate addition measured for 60 mins by fluorescence assay; format: ADME, cell-based
[10] = molecular target: T4, Cytochrome P450 2C19; assay: Inhibition of human CYP2C19 expressed in HEK293 cells using fluorogenic 3-cyano-7-ethoxycoumarin as substrate preincubated for 30 mins followed by substrate addition measured for 60 mins by fluorescence assay; format: ADME, cell-based

T4 sequence (P33261 whole entry): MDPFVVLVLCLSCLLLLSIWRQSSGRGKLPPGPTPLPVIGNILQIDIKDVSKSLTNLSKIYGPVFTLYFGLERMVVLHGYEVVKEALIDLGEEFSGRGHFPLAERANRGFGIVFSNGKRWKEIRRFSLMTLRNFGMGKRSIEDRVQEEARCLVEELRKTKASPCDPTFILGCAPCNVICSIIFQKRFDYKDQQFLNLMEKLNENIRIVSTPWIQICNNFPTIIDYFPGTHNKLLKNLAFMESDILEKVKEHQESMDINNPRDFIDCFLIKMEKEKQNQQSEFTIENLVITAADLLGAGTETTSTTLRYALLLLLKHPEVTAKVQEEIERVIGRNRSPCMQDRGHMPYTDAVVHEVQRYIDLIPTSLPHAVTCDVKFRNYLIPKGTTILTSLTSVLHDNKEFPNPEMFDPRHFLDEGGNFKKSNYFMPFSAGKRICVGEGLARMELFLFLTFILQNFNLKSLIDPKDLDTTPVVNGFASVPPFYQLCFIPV
Sequence of Cytochrome P450 2C9 (P11712 whole entry): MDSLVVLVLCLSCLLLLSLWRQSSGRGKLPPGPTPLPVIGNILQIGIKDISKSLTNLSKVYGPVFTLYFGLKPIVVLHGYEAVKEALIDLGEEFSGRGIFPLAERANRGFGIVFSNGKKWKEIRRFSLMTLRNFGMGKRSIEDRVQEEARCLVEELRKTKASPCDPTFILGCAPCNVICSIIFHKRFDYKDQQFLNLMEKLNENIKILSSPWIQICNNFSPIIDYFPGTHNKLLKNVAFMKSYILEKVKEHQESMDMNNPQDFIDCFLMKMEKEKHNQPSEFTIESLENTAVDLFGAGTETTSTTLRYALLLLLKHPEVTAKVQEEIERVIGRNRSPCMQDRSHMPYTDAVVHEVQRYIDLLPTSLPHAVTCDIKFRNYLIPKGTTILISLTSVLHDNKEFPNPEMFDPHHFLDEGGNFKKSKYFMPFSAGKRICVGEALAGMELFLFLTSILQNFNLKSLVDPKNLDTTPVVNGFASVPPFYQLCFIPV

| Activity [1] [U] | Activity [2] [U] | pIC50 [3] | pIC50 [4] | Activity [5] [U] | pIC50 [6] | pIC50 [7] | pIC50 [8] | pIC50 [9] | pIC50 [10] | Compound |
| --- | --- | --- | --- | --- | --- | --- | --- | --- | --- | --- |
| 770 | 285 | 5.04 | 6.05 | 920 | 6.15 | < 4.70 | 6.70 | < 5.00 | < 5.00 | O=C(/C=C/c1ccccc1Cl)c1ccc[nH]1 |
| 220 | 120 | 6.05 | 5.96 | 600 | 5.96 | < 4.70 | 6.05 | < 5.00 | < 5.00 | COc1ccccc1/C=C/C(=O)c1ccc[nH]1 |
| 955 | 955 | < 4.70 | < 4.70 | 955 | < 4.70 | < 4.70 | < 4.70 | < 4.70 | < 4.70 | O=C(/C=C/c1ccc(OC(F)(F)F)cc1)c1ccc[nH]1 |
